Data as given in ChEMBL document CHEMBL5137024, “Discovery of novel coumarin-indole derivatives as tubulin polymerization inhibitors with potent anti-gastric cancer activities” (Eur J Med Chem, 2022).

How the values were obtained:
MGC-803 = experiment: Antiproliferative activity against human MGC-803 cells assessed as reduction in cell viability incubated for 48 hrs by MTT assay; assay type: functional, cell-based; conditions: Homo sapiens, MGC-803, 48 h
HCT-116 = experiment: cells; conditions: Homo sapiens, HCT-116, 48 h
KYSE-450 = experiment: Antiproliferative activity against human KYSE-450 cells assessed as reduction in cell viability incubated for 48 hrs by MTT assay; assay type: functional, cell-based; conditions: KYSE-450, 48 h

| IC50 (MGC-803) | IC50 (HCT-116) | Structure (SMILES) | IC50 (KYSE-450) |
| --- | --- | --- | --- |
| 1180 nM | 3380 nM | CC(C)(C)OC(=O)n1c(-c2cc(=O)oc3ccccc23)cc2ccccc21 | 2180 nM |
| 8140 nM | 17400 nM | COc1ccc2c(ccn2-c2cc(=O)oc3ccccc23)c1 | 16100 nM |
| > 20000 nM | > 20000 nM | COc1ccc2c(c1)c(C=O)cn2-c1cc(=O)oc2ccccc12 | > 20000 nM |
| 1560 nM | 240 nM | O=c1cc(-c2ccc3[nH]ccc3c2)c2ccccc2o1 | 2100 nM |
| 13 nM | 27 nM | CCn1ccc2cc(N(C)c3cc(=O)oc4ccccc34)ccc21 | 58 nM |
| > 20000 nM | > 20000 nM | O=c1cc(-n2ccc3cc([N+](=O)[O-])ccc32)c2ccccc2o1 | > 20000 nM |
| > 20000 nM | > 20000 nM | Cc1ccc2[nH]cc(C(=O)c3cc(=O)oc4ccccc34)c2c1 | > 20000 nM |
| 110 nM | 270 nM | Cn1ccc2cc(Nc3cc(=O)oc4ccccc34)ccc21 | 310 nM |
| 210 nM | 6250 nM | O=c1cc(Nc2ccc3c(ccn3Cc3ccccc3)c2)c2ccccc2o1 | > 20000 nM |
| > 20000 nM | > 20000 nM | COc1ccc2[nH]cc(C(=O)c3cc(=O)oc4ccccc34)c2c1 | > 20000 nM |
| > 20000 nM | > 20000 nM | O=c1cc(-n2ccc3ccccc32)c2ccccc2o1 | > 20000 nM |
| 1580 nM | 2160 nM | Cn1ccc2ccc(Nc3cc(=O)oc4ccccc34)cc21 | 5460 nM |
| 87 nM | 102 nM | CCN(c1ccc2c(ccn2C)c1)c1cc(=O)oc2ccccc12 | 128 nM |
| 1210 nM | 980 nM | CCn1ccc2cc(-c3cc(=O)oc4ccccc34)ccc21 | 840 nM |
| 14 nM | 50 nM | CN(c1ccc2[nH]ccc2c1)c1cc(=O)oc2ccccc12 | 69 nM |
| 168 nM | 514 nM | CN(c1ccc2ccn(C)c2c1)c1cc(=O)oc2ccccc12 | 472 nM |
| 6040 nM | 3050 nM | CCn1ccc2cc(Nc3cc(=O)oc4ccccc34)ccc21 | > 20000 nM |
| 18100 nM | 11400 nM | O=Cc1ccc2c(ccn2-c2cc(=O)oc3ccccc23)c1 | 10700 nM |
| 260 nM | 2660 nM | O=c1cc(Nc2ccc3[nH]ccc3c2)c2ccccc2o1 | 589 nM |
| 650 nM | 480 nM | O=c1cc(-c2cc3ccccc3[nH]2)c2ccccc2o1 | 710 nM |
| > 20000 nM | > 20000 nM | O=C(c1c[nH]c2ccccc12)c1cc(=O)oc2ccccc12 | > 20000 nM |
| 180 nM | 180 nM | CC(C)(C)OC(=O)n1cc(-c2cc(=O)oc3ccccc23)c2ccccc21 | 210 nM |
| 20 nM | 7490 nM | O=c1cc(Nc2ccc3cc[nH]c3c2)c2ccccc2o1 | > 20000 nM |
| 12900 nM | 11900 nM | O=c1cc(-n2ccc3cc(O)ccc32)c2ccccc2o1 | 17900 nM |

| Structure (SMILES) | IC50 (MGC-803) | IC50 (HCT-116) | IC50 (KYSE-450) |
| --- | --- | --- | --- |
| COc1cc2c(c(OC)c1OC)-c1ccc(OC)c(=O)cc1[C@@H](NC(C)=O)CC2 [COLCHICINE] | – | 108 nM | 122 nM |
